The test system of assay [1] is E. coli 377. The assay is described as follows: MIC by agar-dilution, E. coli 377. To be noted: Escherichia coli, as sodium salt, pH 7.0, inoculum 10^6, read-out: Minimal Inhibitory Concentration. It is filed as cell-based.
The test system of assay [2] is S. aureus 077. In words: MIC by agar-dilution, S. aureus 077. It is filed as cell-based. The conditions noted are these: Staphylococcus aureus, as sodium salt, pH 7.0, inoculum 10^6, read-out: Minimal Inhibitory Concentration.
The test system of assay [3] is E. cloacae 233. The assay is described as follows: MIC by agar-dilution, E. cloacae 233. It is filed as cell-based. To be noted: Enterobacter cloacae, as sodium salt, pH 7.0, inoculum 10^6, read-out: Minimal Inhibitory Concentration.
In assay [4] the test system is K. pneumoniae 363. In words: MIC by agar-dilution, K. pneumoniae 363. It counts as cell-based. The conditions noted are these: Klebsiella pneumoniae, as sodium salt, pH 7.0, inoculum 10^6, read-out: Minimal Inhibitory Concentration.
Assay [5] concerns S. pneumoniae I. In words: MIC by agar-dilution, S. pneumoniae I. It is filed as cell-based. To be noted: Streptococcus pneumoniae, as sodium salt, pH 7.0, inoculum 10^6, read-out: Minimal Inhibitory Concentration.
Assay [6] relates to P. morganii No. 9. The assay is described as follows: MIC by agar-dilution, P. morganii No. 9. It counts as cell-based, Proteus morganii. The conditions noted are these: Morganella morganii, as sodium salt, pH 7.0, inoculum 10^6, read-out: Minimal Inhibitory Concentration.
Assay [7] concerns P. aeruginosa 25619. The assay is described as follows: MIC by agar-dilution, P. aeruginosa 25619. It counts as cell-based. To be noted: Pseudomonas aeruginosa, as sodium salt, pH 7.0, inoculum 10^6, read-out: Minimal Inhibitory Concentration.
Assay [8] deals with S. marcescens 13880. In words: MIC by agar-dilution, S. marcescens 13880. It is filed as cell-based. The conditions noted are these: Serratia marcescens, as sodium salt, pH 7.0, inoculum 10^6, read-out: Minimal Inhibitory Concentration.
Assay [9] has as its system S. aureus Smith. The assay is described as follows: MIC by agar-dilution, S. aureus Smith. It is filed as cell-based. To be noted: Staphylococcus aureus, as sodium salt, pH 7.0, inoculum 10^6, read-out: Minimal Inhibitory Concentration.
Assay [10] has as its system E. cloacae 13047. The assay is described as follows: MIC by agar-dilution, E. cloacae 13047. The conditions noted are these: Enterobacter cloacae, as sodium salt, pH 7.0, inoculum 10^6, read-out: Minimal Inhibitory Concentration. It is filed as cell-based.
In assay [11] the test system is P. vulgaris No. 3. The assay is described as follows: MIC by agar-dilution, P. vulgaris No. 3. It is filed as cell-based. To be noted: Proteus vulgaris, as sodium salt, pH 7.0, inoculum 10^6, read-out: Minimal Inhibitory Concentration.
Assay [12] concerns E. coli 73. In words: MIC by agar-dilution, E. coli 73. The conditions noted are these: Escherichia coli, as sodium salt, pH 7.0, inoculum 10^6, read-out: Minimal Inhibitory Concentration. It counts as cell-based.
Assay [13] concerns S. pyogenes C-203. The assay is described as follows: MIC by agar-dilution, S. pyogenes C-203. It counts as cell-based. The conditions noted are these: Streptococcus pyogenes, C203, as sodium salt, pH 7.0, inoculum 10^6, read-out: Minimal Inhibitory Concentration.
For assay [14], the system named is S. aureus 209P JC-1. The assay is described as follows: MIC by agar-dilution, S. aureus 209P JC-1. The conditions noted are these: Staphylococcus aureus, as sodium salt, pH 7.0, inoculum 10^6, read-out: Minimal Inhibitory Concentration. It counts as cell-based.
The test system of assay [15] is S. aureus C-14. The assay is described as follows: MIC by agar-dilution, S. aureus C-14. To be noted: Staphylococcus aureus, C14, as sodium salt, pH 7.0, inoculum 10^6, read-out: Minimal Inhibitory Concentration. It is filed as cell-based.
Assay [16] has as its system E. coli H. The assay is described as follows: MIC by agar-dilution, E. coli H. To be noted: Escherichia coli, as sodium salt, pH 7.0, inoculum 10^6, read-out: Minimal Inhibitory Concentration. It counts as cell-based.
For assay [17], the system named is E. coli NIHJ JC-2. The assay is described as follows: MIC by agar-dilution, E. coli NIHJ JC-2. It is filed as cell-based. To be noted: Escherichia coli, NIHJJC2, as sodium salt, pH 7.0, inoculum 10^6, read-out: Minimal Inhibitory Concentration.
Assay [18] relates to E. coli EC-14. In words: MIC by agar-dilution, E. coli EC-14. It counts as cell-based. To be noted: Escherichia coli, EC14, as sodium salt, pH 7.0, inoculum 10^6, read-out: Minimal Inhibitory Concentration.
In assay [19] the test system is P. mirabilis PR-4. In words: MIC by agar-dilution, P. mirabilis PR-4. It is filed as cell-based. The conditions noted are these: Proteus mirabilis, PR4, as sodium salt, pH 7.0, inoculum 10^6, read-out: Minimal Inhibitory Concentration.
The subject of assay [20] is K. pneumoniae SHIONOGI
The assay is described as follows: MIC by agar-dilution, K. pneumoniae SHIONOGI
To be noted: Klebsiella pneumoniae, as sodium salt, pH 7.0, inoculum 10^6, read-out: Minimal Inhibitory Concentration. It is filed as cell-based.

Assay [21] deals with P. vulgaris CN-329. The assay is described as follows: MIC by agar-dilution, P. vulgaris CN-329. It is filed as cell-based. To be noted: Proteus vulgaris, CN329, as sodium salt, pH 7.0, inoculum 10^6, read-out: Minimal Inhibitory Concentration.

This is an account of results in patent publication US4201782A, “Thiadiazolyl cephalosporin analogs” (Shionogi & Co., Ltd., priority 1977, dated 1980).

Turning to `CO[C@@]1(NC(=O)C(C(=O)O)c2ccc(O)cc2)C(=O)N2C(C(=O)O)=C(CSc3nnc(C)s3)CO[C@@H]21` (stereo partly drawn) [Compound (1), 7α-methoxy-7β-(α-p-hydroxyphenyl-α-carboxyacetamido)-3-(2-methyl-1,3,4-thiadiazol-5-yl)thiomethyl-1-dethia-1-oxa-3-cephem-4-carboxylic acid], the MIC in [1] worked out at 1.56 µg/mL; in assay [2] it was 25 µg/mL; in assay [3] it was 1.6 µg/mL; in assay [4] it was 0.39 µg/mL; in assay [5], 3.13 µg/mL; in assay [6], 0.78 µg/mL. Also, the MIC in assay [7] is 25 µg/mL; in assay [8] it was 3.13 µg/mL; in assay [9], 25 µg/mL; in [10] it was 50 µg/mL; in assay [11] it was 0.78 µg/mL; in assay [12], 6.25 µg/mL. Besides, the MIC amounted to 3.13 µg/mL in assay [13]; 12.5 µg/mL in [14]; 25 µg/mL in assay [15]; 0.2 µg/mL in assay [16]; 0.78 µg/mL in assay [17]; 0.78 µg/mL in [18]. For the same compound, the figures for the MIC in [19], in assay [20] and in [21] were 0.39 µg/mL, 0.78 µg/mL and 0.39 µg/mL, respectively.

Consider `CO[C@@]1(NC(=O)C(C(=O)O)c2ccsc2)C(=O)N2C(C(=O)O)=C(CSc3nnc(C)s3)CO[C@@H]21` (stereo partly drawn) [Compound (3), 7α-methoxy-7β-[α-(3-thienyl)-α-carboxyacetamido]-3-(2-methyl-1,3,4-thiadiazol-5-yl)thiomethyl-1-dethia-1-oxa-3-cephem-4-carboxylic acid], for which the MIC was determined as 0.78 µg/mL in [1]; 6.25 µg/mL in assay [2]; 12.5 µg/mL in assay [3]; 0.78 µg/mL in assay [4]; 3.13 µg/mL in assay [5]; 0.2 µg/mL in assay [6]. The MIC in assay [7] is 25 µg/mL; in assay [8] it was 1.56 µg/mL; in assay [9], 6.25 µg/mL; in [10] it was 25 µg/mL; in [11] it was 0.39 µg/mL; in [12] it was 1.56 µg/mL. Further, the MIC in assay [13] came to 0.78 µg/mL; in assay [14], 6.25 µg/mL; in assay [15] it was 6.25 µg/mL; in assay [16], 0.05 µg/mL; in assay [17], 0.39 µg/mL; in assay [18], 0.2 µg/mL. For the same compound, the values for the MIC in [19], in assay [20] and in [21] were 0.1 µg/mL, 0.2 µg/mL and 0.1 µg/mL, respectively.

As for `CO[C@@]1(NC(=O)C(C(=O)O)c2ccsc2)C(=O)N2C(C(=O)O)=C(CSc3nncs3)CO[C@@H]21` (stereo partly drawn) [Compound (4), 7α-methoxy-7β-[α-(3-thienyl)-α-carboxyacetamido]-3-(1,3,4-thiadiazol-5-yl)thiomethyl-1-dethia-1-oxa-3-cephem-4-carboxylic acid], the MIC in [1] worked out at 0.39 µg/mL; in assay [2], 6.25 µg/mL; in assay [3], 6.25 µg/mL; in assay [4], 0.2 µg/mL; in assay [5] it was 6.25 µg/mL; in [6], 0.2 µg/mL. Moreover, the MIC in [7] was found to be 25 µg/mL; in assay [8] it was 0.39 µg/mL; in assay [9], 6.25 µg/mL; in assay [10], 12.5 µg/mL; in assay [11], 0.39 µg/mL; in [12], 0.78 µg/mL. The MIC in assay [13] stood at 3.13 µg/mL; in [14], 6.25 µg/mL; in assay [15], 6.25 µg/mL; in assay [16], 0.1 µg/mL; in assay [17], 0.2 µg/mL; in assay [18] it was 0.1 µg/mL. Besides, the MIC in [19], in assay [20] and in assay [21] was 0.2 µg/mL each time.

As for `CO[C@@]1(NC(=O)C(C(=O)O)c2ccc(O)cc2)C(=O)N2C(C(=O)O)=C(CSc3nncs3)CO[C@@H]21` (stereo partly drawn) [Compound (2), 7α-methoxy-7β-(α-p-hydroxyphenyl-α-carboxyacetamido)-3-(1,3,4-thiadiazol-5-yl)thiomethyl-1-dethia-1-oxa-3-cephem-4-carboxylic acid], the MIC turned out to be 0.78 µg/mL in assay [1]; 25 µg/mL in [2]; 6.25 µg/mL in assay [3]; 0.39 µg/mL in [4]; 6.25 µg/mL in assay [5]; 0.78 µg/mL in assay [6]. The MIC in assay [7] was 25 µg/mL; in assay [8], 1.56 µg/mL; in assay [9], 12.5 µg/mL; in [10], 25 µg/mL; in assay [11] it was 0.78 µg/mL; in assay [12], 3.13 µg/mL. Further, the MIC in assay [13] was found to be 3.13 µg/mL; in assay [14], 12.5 µg/mL; in assay [15], 25 µg/mL; in assay [16] it was 0.2 µg/mL; in [17], 0.39 µg/mL; in assay [18], 0.39 µg/mL. The figures for the MIC in [19], in assay [20] and in [21] were 0.39 µg/mL, 0.39 µg/mL and 0.78 µg/mL, respectively.
